Drawing on patent publication EP4741392A1, “1H-PYRAZOLO[4,3-C]PYRIDINE COMPOUND, AND COMPOSITION THEREOF AND USE THEREOF” (Shenzhen TargetRx Co., Ltd., priority 2023, dated 2025), this text covers IC50 for 14 molecules.

Holding throughout (assay): Kinase activity inhibition assay (HTRF TK Kit), selectivity
What all share (type): biochemical
On the technique in general: Time-resolved FRET reads energy transfer from a long-lived donor to a nearby acceptor.

One experiment deals with T1, EGFR (Homo sapiens, UniProt P00533).
T1 construct: purchased Carna 08-115
T1 sequence (P00533 669-1210 limits assumed): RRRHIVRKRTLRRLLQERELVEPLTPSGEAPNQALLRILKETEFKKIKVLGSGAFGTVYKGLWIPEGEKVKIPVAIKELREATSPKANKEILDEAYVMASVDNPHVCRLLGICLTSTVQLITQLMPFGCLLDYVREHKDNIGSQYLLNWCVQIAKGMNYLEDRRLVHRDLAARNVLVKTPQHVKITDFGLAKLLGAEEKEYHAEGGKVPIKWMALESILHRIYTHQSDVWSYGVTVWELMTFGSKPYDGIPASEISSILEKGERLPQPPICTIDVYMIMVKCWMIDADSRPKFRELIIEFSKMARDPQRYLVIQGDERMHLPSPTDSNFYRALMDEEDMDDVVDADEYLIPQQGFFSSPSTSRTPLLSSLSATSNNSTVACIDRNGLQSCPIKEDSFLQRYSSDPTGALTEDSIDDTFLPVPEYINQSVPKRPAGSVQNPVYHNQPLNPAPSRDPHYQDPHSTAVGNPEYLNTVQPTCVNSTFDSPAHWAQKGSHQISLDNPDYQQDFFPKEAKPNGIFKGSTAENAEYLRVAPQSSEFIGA
The text has this:
(§1) In this assay, the HTRF TK Kit (Catalog No. 62TK0PEC) provided by Cisbio was used to detect the inhibitory activity of compounds on BTK kinase, BTK T474I kinase and BTK C481 S kinase and the selectivity of compounds relative to EGFR, ITK and TEC kinases.
(§2) Reagents and consumables: BTK kinase (Invitrogen, Catalog No. PV3587), BTK C481S (Carna, Product No. 08-547), BTK T474I(SignalChem Product No. B10-12HH), ITK (Cama, Product No. 08-181), EGFR (Cama, Product No. 08-115), TEC (Carna, Product No. 08-182), HTRF-TK kit (Cisbio, Product No. 62TK0PEC), MgCl2 (Sigma, Product No. M1028), MnCl2 (Sigma, Product No. M1787), DTT (Sigma, Product No. D0632), ATP (Sigma, Product No. A7699-1g), DMSO (Sigma, Product No. D2650), 384-well plate (PE, Product No. 6008280).
(§3) The entire operation steps were carried out on ice, and the total reaction volume was 10µL. A compound (4µL), substrate and ATP (4µL), and kinase (2µL) were added in sequence to a 384-well plate, and the plate was shaken for 30 seconds. The mixture was reacted at room temperature for an appropriate time, and then the detection reagent was added. The resulting mixture was reacted at room temperature for 1 hour, and then the plate was assayed with a microplate reader. The specific steps were as follows: • a) a 1 × kinase buffer solution required for the kinase assay was calculated according to the amount of the test compound, and prepared as needed; • b) 2.5 × working concentration of a compound was prepared, 100-fold gradient concentration solutions of a compound were diluted by 40 × to the desired concentration, respectively, mixed well, and added to each well at 4 µL per well; • c) 5 × working concentration of the substrate and ATP were prepared, mixed in a ratio of 1:1 before being added to the 384-well plate, and added to each well at 4 µL per well; • d) 5 × working concentration of a kinase was prepared, 2 µL of which was added to each well; • e) the plate was shaken on a microplate shaker for 30 seconds, sealed with a sealing membrane, and the mixture was reacted at room temperature for an appropriate time; • f) 4 × working concentration of streptavidin XL-665 and TK antibody-cryptate compound were prepared, mixed in a ratio of 1:1 before being added to the 384-well plate, and added to each well at 10 µL per well; • g) the mixture was reacted at room temperature for 1 hour, and then the plate was read; • h) the wells with only substrate, ATP and 1% DMSO added but no kinase were blank control wells, and the wells with only substrate, ATP, 1% DMSO and kinase were positive control wells.
(§4) Readings: The values of 620 nm (cryptate) and 665 nm (XL665) were read with a BioTek Synerg Neo2 microplate reader, the ratio of 665/620 for each well was calculated, and the data were exported.
(§5) Data analysis: IC50 was calculated using GraphPad Prism 7.0 software.
(§6) The IC50 (half-maximal inhibitory concentration) of the compound was obtained using the following nonlinear fitting formula: Y = Bottom + (Top−Bottom)/(1+10^(∧)((LogIC50−X)*HillSlope)) [formula] • X: Log value of the compound concentration • Y: Inhibition rate (% inhibition) • Top: Maximum response • Bottom: Baseline response • HillSlope: Slope of the curve
(§7) The formula for calculating kinase inhibition rate (inhibition rate %) was: [formula]

The target in another experiment is T2, ITK (Homo sapiens, UniProt Q08881).
T2 construct: purchased Carna 08-181
T2 sequence (Q08881 1-620): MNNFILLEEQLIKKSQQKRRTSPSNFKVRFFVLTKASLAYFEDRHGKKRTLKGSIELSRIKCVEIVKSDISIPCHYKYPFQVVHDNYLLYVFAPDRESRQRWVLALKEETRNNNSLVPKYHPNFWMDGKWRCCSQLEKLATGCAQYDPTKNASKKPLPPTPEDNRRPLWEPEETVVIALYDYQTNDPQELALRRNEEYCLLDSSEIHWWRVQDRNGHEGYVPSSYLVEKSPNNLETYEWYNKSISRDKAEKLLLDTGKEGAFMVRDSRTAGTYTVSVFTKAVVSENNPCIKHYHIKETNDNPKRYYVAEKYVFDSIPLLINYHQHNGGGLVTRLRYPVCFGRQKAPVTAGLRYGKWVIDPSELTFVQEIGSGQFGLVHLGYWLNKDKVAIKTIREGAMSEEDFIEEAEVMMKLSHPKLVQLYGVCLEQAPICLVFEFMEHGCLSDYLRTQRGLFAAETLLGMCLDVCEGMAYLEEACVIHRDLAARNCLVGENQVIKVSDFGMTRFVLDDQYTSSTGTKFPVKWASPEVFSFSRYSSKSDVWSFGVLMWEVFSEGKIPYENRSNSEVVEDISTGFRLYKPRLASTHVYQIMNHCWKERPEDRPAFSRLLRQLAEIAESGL
Description: as §1, §2, §3, §4, §5, §6, §7

Another experiment has as its target T3, TEC (Homo sapiens, UniProt P42680).
T3 construct: purchased Carna 08-182
T3 sequence (P42680 1-631): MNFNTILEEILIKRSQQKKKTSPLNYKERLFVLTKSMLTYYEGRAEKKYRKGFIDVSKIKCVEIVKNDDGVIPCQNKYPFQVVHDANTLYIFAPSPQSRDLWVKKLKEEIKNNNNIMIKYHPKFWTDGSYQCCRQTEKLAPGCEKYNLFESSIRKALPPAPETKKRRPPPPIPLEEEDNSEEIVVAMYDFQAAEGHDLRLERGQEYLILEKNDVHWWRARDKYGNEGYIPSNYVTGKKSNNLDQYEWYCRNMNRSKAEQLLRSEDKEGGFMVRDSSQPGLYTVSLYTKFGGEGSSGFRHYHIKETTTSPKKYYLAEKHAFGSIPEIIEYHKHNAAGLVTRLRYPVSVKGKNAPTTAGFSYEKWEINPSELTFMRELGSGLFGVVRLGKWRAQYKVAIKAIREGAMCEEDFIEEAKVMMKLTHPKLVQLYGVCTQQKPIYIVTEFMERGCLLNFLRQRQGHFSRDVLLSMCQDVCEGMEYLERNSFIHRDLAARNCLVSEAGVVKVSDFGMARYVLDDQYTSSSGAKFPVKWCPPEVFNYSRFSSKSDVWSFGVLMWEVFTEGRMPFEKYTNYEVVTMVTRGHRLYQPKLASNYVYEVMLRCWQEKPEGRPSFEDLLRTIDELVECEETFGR
Description: as §1, §2, §3, §4, §5, §6, §7

Structures are written as SMILES. Some results are limits rather than exact numbers.

One may read the IC50 as the concentration needed to halve the response being measured. Consider `COc1ccc(F)cc1C(=O)NCc1ccc(-c2ncc(-c3ccncn3)c3[nH]nc(N)c23)cc1` [Example 19], for which the IC50 on EGFR is > 0.5 µM; on ITK it was > 0.5 µM; at TEC, 0.05 to 0.5 µM.

Regarding `COc1ccc(F)cc1C(=O)NCc1ccc(-c2ncc(-c3ccc(F)cn3)c3[nH]nc(N)c23)cc1` [Example 21, N-(4-(3-amino-7-(5-fluoropyridin-2-yl)-1H-pyrazolo[4,3-c]pyridin-4-yl)benzyl)-5-fluoro-2-methoxybenzamide], the IC50 is > 0.5 µM on EGFR, > 0.5 µM at ITK and 0.05 to 0.5 µM at TEC.

In the case of `COc1ccc(F)cc1C(=O)NCc1ccc(-c2ncc(-c3cnn(C)c3)c3[nH]nc(N)c23)cc1` [Example 22, N-(4-(3-amino-7-(1-methyl-1H-pyrazol-4-yl)-1H-pyrazolo[4,3-c]pyridin-4-yl)benzyl)-5-fluoro-2-oxybenzamide], the IC50 at EGFR, at ITK and at TEC was > 0.5 µM in each case.

On to `COc1ccc(F)cc1C(=O)NCc1ccc(-c2ncc(-c3ccn(C)n3)c3[nH]nc(N)c23)cc1` [Example 23, N-(4-(3-amino-7-(1-methyl-1H-pyrazol-3-yl)-1H-pyrazolo[4,3-c]pyridin-4-yl)benzyl)-5-fluoro-2-methoxybenzamide], for which the half-maximal inhibitory concentration (IC50) at EGFR is 0.05 to 0.5 µM; at ITK it was > 0.5 µM; at TEC it was 0.005 to 0.05 µM.

As for `COc1ccc(F)cc1C(=O)NCc1ccc(-c2ncc(-c3ccc(C(F)(F)F)cn3)c3[nH]nc(N)c23)cc1` [Example 24, N-(4-(3-amino-7-(5-(trifluoromethyl)pyridin-2-yl)-1H-pyrazolo[4,3-c]pyridin-4-yl)benzyl)-5-fluoro-2-methoxybenzamide], the IC50 was > 0.5 µM at EGFR, > 0.5 µM on ITK and 0.05 to 0.5 µM on TEC.

Take `COc1ccc(F)cc1C(=O)NCc1ccc(-c2ncc(-c3ccn(CC(=O)N(C)C)n3)c3[nH]nc(N)c23)cc1` [Example 25, N-(4-(3-amino-7-(1-(2-(dimethylamino)-2-oxoethyl)-1H-pyrazol-3-yl)-1H-pyrazolo[4,3-c]pyridin-4-yl)benzyl)-5-fluoro-2-methoxybenzamide]: the values for the half-maximal inhibitory concentration (IC50) at EGFR, on ITK and at TEC were 0.05 to 0.5 µM, > 0.5 µM and 0.05 to 0.5 µM, respectively.

In the case of `CNC(=O)Cn1ccc(-c2cnc(-c3ccc(CNC(=O)c4cc(F)ccc4OC)cc3)c3c(N)n[nH]c23)n1` [Example 26, N-(4-(3-amino-7-(1-(2-(methylamino)-2-oxoethyl)-1H-pyrazol-3-yl)-1H-pyrazolo[4,3-c]pyridin-4-yl)benzyl)-5-fluoro-2-methoxybenzamide], the 50% inhibitory concentration (IC50) at EGFR is 0.05 to 0.5 µM; at ITK, > 0.5 µM; at TEC, 0.05 to 0.5 µM.

For `COc1ccc(F)cc1C(=O)NCc1ccc(-c2ncc(-c3ccn(CC(F)(F)F)n3)c3[nH]nc(N)c23)cc1` [Example 28, N-(4-(3-amino-7-(1-(2,2,2-trifluoroethyl)-1H-pyrazol-3-yl)-1H-pyrazolo[4,3-c]pyridin-4-yl)benzyl)-5-fluoro-2-methoxybenzamide], the IC50 at EGFR was 0.005 to 0.05 µM; on ITK it was 0.05 to 0.5 µM; on TEC it was 0.005 to 0.05 µM.

In the case of `COc1ccc(F)cc1C(=O)NCc1ccc(-c2ncc(-c3cn(C)cn3)c3[nH]nc(N)c23)cc1` [Example 30, N-(4-(3-amino-7-(1-methyl-1H-imidazol-4-yl)-1H-pyrazolo[4,3-c]pyridin-4-yl)benzyl)-5-fluoro-2-methoxybenzamide], the IC50 at EGFR is 0.05 to 0.5 µM; at ITK, > 0.5 µM; on TEC, 0.05 to 0.5 µM.

`COc1ccc(F)cc1C(=O)NCc1ccc(-c2ncc(-c3cc[nH]n3)c3[nH]nc(N)c23)cc1` [Example 31, N-(4-(3-amino-7-(1H-pyrazol-3-yl)-1H-pyrazolo[4,3-c]pyridin-4-yl)benzyl)-5-fluoro-2-methoxybenzamide]: the values for the IC50 on EGFR, at ITK and on TEC were 0.05 to 0.5 µM, > 0.5 µM and 0.05 to 0.5 µM, respectively.

Regarding `COc1ccc(F)cc1C(=O)NCc1ccc(-c2ncc(-c3ccc(S(C)(=O)=O)cn3)c3[nH]nc(N)c23)cc1` [Example 35, N-(4-(3-amino-7-(5-(methylsulfonyl)pyridin-2-yl)-1H-pyrazolo[4,3-c]pyridin-4-yl)benzyl)-5-fluoro-2-methoxybenzamide], the results for the IC50 on EGFR, at ITK and at TEC were 0.05 to 0.5 µM, 0.05 to 0.5 µM and 0.005 to 0.05 µM, respectively.

Consider `COc1ccc(F)cc1C(=O)NCc1ccc(-c2ncc(-c3ncc(F)cn3)c3[nH]nc(N)c23)cc1` [Example 36, N-(4-(3-amino-7-(5-fluoropyrimidin-2-yl)-1H-pyrazolo[4,3-c]pyridin-4-yl)benzyl)-5-fluoro-2-methoxybenzamide], for which the IC50 was 0.05 to 0.5 µM on EGFR, > 0.5 µM at ITK and 0.05 to 0.5 µM on TEC.

`COc1ccc(F)cc1C(=O)NCc1ccc(-c2ncc(-c3ccc(C)cn3)c3[nH]nc(N)c23)cc1` [Example 37, N-(4-(3-amino-7-(5-methylpyridin-2-yl)-1H-pyrazolo[4,3-c]pyridin-4-yl)benzyl)-5-fluoro-2-methoxybenzamide]: the IC50 is 0.05 to 0.5 µM on EGFR, > 0.5 µM on ITK and 0.005 to 0.05 µM at TEC.

Consider `COc1ccc(F)cc1C(=O)NCc1ccc(-c2ncc(-c3ccc(Cl)cn3)c3[nH]nc(N)c23)cc1` [Example 38, N-(4-(3-amino-7-(5-chloropyridin-2-yl)-1H-pyrazolo[4,3-c]pyridin-4-yl)benzyl)-5-fluoro-2-methoxybenzamide], for which the IC50 on EGFR was 0.05 to 0.5 µM; at ITK, > 0.5 µM; on TEC, 0.005 to 0.05 µM.
